Data: patent US20080241258A1, “TREATMENT OF DISEASES WITH NANOPARTICLES HAVING A SIZE-DEPENDENT CYTOTOXICITY” (priority 2007, published 2008)
pIC50: −log10 of the molar value.

Key:
[1] = Stability (aggregation) of Au compounds in serum containing cell culture media, scored from microscopic pictures; type: physicochemical; design: key: Material aggregation was scored positive (+); negative (−); conditions: for Aggregation at 12 hours: sign after slash; for Aggregation at 5 minutes: sign in front of slash
From the text: Next applicant tested the stability of the materials in the serum containing cell culture media formulated for proper growth of the cell lines used in this study. Applicant reasoned that the medium composition might affect particle aggregation and that aggregation of materials would greatly influence the endocytic pathway and ultimately the cellular trajectories of materials precluding or favoring intracellular targets. Macroscopic and microscopic aspects of medium-material combinations in the absence of any cells were studied by applicant.
Materials were grouped according to their stability in specific media and over time.
Material stability was assayed in DMEM high glucose (H). DMEM low glucose (L) and RPMI 1640 including 10% fetal calf serum. Material aggregation was scored positive (+) or negative (−) from microscopic pictures taken after 5 minutes (sign in from of slash) and 12 hours incubation (sign after slash).

[2] = test system: HeLa, SK-MeI-28, L929 and J774A1 cells; experiment: MTT cytotoxicity assay in four cell lines
From the text: Applicant tested the cytotoxicity of these particles in four cell lines representing major functional cell types with barrier and phagocyte function.
Applicant added Au compounds to HeLa cervix carcinoma epithelial cells (HeLa), SK-MeI-28 melanoma cells (SK-MeI-28), L929 mouse fibroblasts (L929) and J774A.1 mouse monocytic/macrophage cells (J774A1) and first studied their response by light and electron microscopy.
Applicant quantified the toxicity of Au compounds in four cell lines determining the inhibitory concentrations that effected 50% growth inhibition (IC50) in MTT assays. […] Thus, applicant determined growth curves for all cell lines to estimate the logarithmic and stationary growth phases in relation to the number of cells seeded into each well of a 96-well cell culture plate.
Having established growth characteristics for the reporter cell lines applicant treated the cells with Au compounds for up to 48 hours to observe the full effect of toxicity. […] Applicant performed toxicity tests both during the logarithmic and the stationary phase of cell growth following the time course depicted in FIG. 2, lower panels.
FIG. 3 A): HeLa cells were plated at 2000 cells/well and grown for 3 days into the logarithmic growth phase. […] All concentrations relate to the amount of gold [Au] detected by AAS in the authentic samples after performing the cytotoxicity test. […]

[3] = test system: HeLa cervix carcinoma epithelial cells; experiment: MTT cytotoxicity assay, logarithmic growth phase; type: cell-based; conditions: FIG. 3A, at ˜10 μM ligand
From the text: Applicant quantified the toxicity of Au compounds in four cell lines determining the inhibitory concentrations that effected 50% growth inhibition (IC50) in MTT assays. Applicant reasoned that actively growing and dividing cells during logarithmic growth should be more vulnerable to toxic insults than cells in near or at the stationary phase of cell culture. Thus, applicant determined growth curves for all cell lines to estimate the logarithmic and stationary growth phases in relation to the number of cells seeded into each well of a 96-well cell culture plate. […] This graph serves as a reference to estimate whether cells were in the logarithmic or in the stationary phase of cell culture at the start of any given experiment. […] The bottom panel depicts the protocol of cytotoxicity testing starting during the logarithmic (left bottom panel) or the stationary growth phase (right bottom panel).
Having established growth characteristics for the reporter cell lines applicant treated the cells with Au compounds for up to 48 hours to observe the full effect of toxicity. […]
FIG. 3 A): HeLa cells were plated at 2000 cells/well and grown for 3 days into the logarithmic growth phase. […] Shown are the logarithmic curve fits of tabulated MTT readings. […] All concentrations relate to the amount of gold [Au] detected by AAS in the authentic samples after performing the cytotoxicity test. […]

[4] = DMEM high glucose (H) including 10% fetal calf serum
[5] = DMEM low glucose (L) including 10% fetal calf serum
[6] = RPMI 1640 including 10% fetal calf serum

| Compound | Aggregation at 12 hours [1, 4] | Aggregation at 5 minutes [1, 4] | Aggregation at 12 hours [1, 5] | Aggregation at 5 minutes [1, 5] | Aggregation at 12 hours [1, 6] | Aggregation at 5 minutes [1, 6] | non-toxic at up to x fold higher concentration (than 1.4 nm nanoclusters) ([2]; four cell lines) | pIC50 ([2]; read-out: cytotoxicity: non-toxic at concentrations up to, all cells tested) | ligand toxicity [3] |
| --- | --- | --- | --- | --- | --- | --- | --- | --- | --- |
| gold thiomalate [Tauredon] | +/+ | +/+ | +/+ | +/+ | + | − | up to 1000 fold | < 2.00 |  |
| [Au+3].[Cl-].[Cl-].[Cl-].[Cl-].[H+] [HAuCl4] | −/− | −/− | −/− | −/− | −/− | −/− |  |  |  |
| O=S(=O)([O-])c1cccc(P(c2cccc(S(=O)(=O)[O-])c2)c2cccc(S(=O)(=O)[O-])c2)c1.[Na+].[Na+].[Na+] [TPPTS, triphenylphosphine trisulfonate] | −/− | −/− | −/− | −/− | −/− | −/− |  |  | non-toxic |
| [Cl][Au-]([Cl])([Cl])[Cl].[Na+] [NaAuCl4] | −/− | −/− | −/− | −/− | −/− | −/− |  |  |  |
| O=S(=O)([O-])c1cccc(P(c2ccccc2)c2ccccc2)c1.[Na+] [TPPMS, triphenylphosphine monosulfonate] | −/− | −/− | −/− | −/− | −/− | −/− |  |  | non-toxic |
